Test results taken from patent publication US11241480B2, “Methods for modulation of dietary and microbial exposure with compositions comprising an EGFR ligand” (Washington University, priority 2017, dated 2022).
“Also recorded” adds a separate entry of the source.

Tests used:
[1] = tested on: goblet cell associated antigen passages (GAPs); test: Enumeration of goblet cell associated antigen passages (GAPs) in SI and colon by in vivo two-photon imaging and fixed sections; set-up: species or system mice
Experimental: Intravital two-photon (2P) microscopy: Mice were anesthetized using nebulized isofluorane in 95% O2/5% CO2. Intravital preparation of the intestine was performed as previously described. To detect GAPs, lysine fixable fluorescently-labeled dextran 10,000 MW (10 mg/mL) and diamidino-2-phenylindole (DAPI; 10 mg/mL) were injected intraluminally 20 minutes prior to imaging, and imaging was performed for up to one hour. To detect paracellular leak fluorescently labeled dextran 3,000 MW (10 mg/mL) and DAPI (10 mg/mL) were injected intraluminally 20 minutes prior to imaging. To detect the extension of trans-epithelial dendrites by APCs, CD11c^YFP or CX3CR1^GFP were imaged as above using 10,000 MW fluorescent dextran to outline the epithelial surface. Tissues were excited using a Ti:sapphire laser tuned to 890 nm (Chameleon X R, Coherent). Time-lapse imaging was performed with a custom-built 2P microscope running ImageWarp acquisition software (A&B Software, New London, Conn.). Epithelial integrity was assessed by dextran and DAPI staining as described. Following imaging, tissues were placed in 10% formalin buffered phosphate solution (Fisher Scientific) to fix dextrans in place to confirm 2P findings and for further analysis by immunofluorescence microscopy.
In some experiments mice were treated with 150 μg/kg carbachol chloride i.p. 10 minutes before dextran, 100 mg/kg tropicamide (mAChR4 selective antagonist) i.p. 20 minutes before dextran, 500 μg/kg tyrphostin AG1478 (inhibitor of EGFR phosphorylation) i.p. 20 minutes before dextran, 10 mg/kg U-0126 (inhibitor of p42/p44 MAPK phosphorylation) i.p. 20 minutes before dextran, 1-1000 ng EGF (Shenandoah Biotechnologies) injected intraluminally 20 minutes before dextran, 10 μg LPS injected intraluminally 20 minutes before dextran, or 100 μl stomach contents from a DOL 10 mice, or 100 μl heat killed cecal contents from SPF housed adult mice injected intraluminally 20 minutes before dextran was administered. All reagents from Sigma Aldrich, St. Louis, Mo. unless otherwise noted.
Enumeration of GAPs: GAPs were identified as dextran-filled columns measuring approximately 20 μm (height)×5 μm (diameter) traversing the epithelium and containing a nucleus. GAPs were enumerated in the jejunum or mid-transverse colon using Z-stack images of a volume of 225 μm(x) by 250 μm(y) by 50 μm(z) acquired during in vivo 2P imaging as described above. SI GAPs were enumerated as GAPs per villus. When present, colonic GAPs were found on both the surface epithelium and within the crypts, but were enumerated as GAPs per crypt due to difficulty in distinguishing dextran filled GAPs from luminal dextran during in vivo imaging. De-identified and coded video clips were evaluated by a blinded investigator to enumerate GAPS in early life. The number of GAPs per villus and GAPs per crypt seen by 2P imaging were confirmed by immunofluorescence microscopy of tissues that were fixed following 2P imaging. To quantify GAPs per GC, lysine fixable 10,000 MW fluorescent dextran was injected into the lumen and intestines harvested 25 min later. Tissues were fixed with 10% formalin buffered saline for 45 min, sectioned, and stained with antibodies directed against cyt18. GCs were identified cyt18+ epithelial cells with GC morphology and GAPs as dextran containing epithelial cells defined as above.
Intravital two-photon (2P) microscopy: Mice were anesthetized using nebulized isofluorane in 95% O2/5% CO2. Intravital preparation of the intestine was performed as previously described. To detect GAPs, tetramethylrodamine labeled dextran 10,000 MW (10 mg/mL) or fluorescein labeled dextran 10,000 MW (10 mg/mL) and diamidino-2-phenylindole (DAPI; 10 mg/mL) were injected intraluminally 20 minutes prior to imaging and imaging was performed for up to one hour. Tissues were excited using a Ti:sapphire laser tuned to 890 nm (Chameleon XR, Coherent). […]

[2] = tested on: colonic LP-APCs (LP-MNPs); test: Luminal antigen delivery to LP-APCs/LP-MNPs, read out by ex vivo T cell co-culture; format: in vivo, mice; settings: for luminal antigen uptake by colonic APCs (expansion of Ova-specific T-cells): DOL 18 mice, agent concurrent with luminal Ova
Experimental: Analysis of luminal antigen delivery to LP-DCs: Mice received Ova 20 g/L (Sigma Aldrich) for 3 days prior to isolation of LP-APCs (dietary Ova FIG. 1C) or were anesthetized and 2 mg Ova (OTI assay) or 25 mg Ova (OTII assay) dissolved in phosphate buffered saline (PBS), or PBS alone (controls), was injected intraluminally into the SI or colon as previously described. Two hours later cell populations were isolated from the non-Peyer's patch bearing SI LP or non-colonic patch bearing colon LP. APC populations and Ova specific […] T-cells were isolated with flow cytometric cell sorting and cultured at a ratio of 1:10 APCs (1×10^4) to T-cells (1×10^5). As a positive control, 10 μg Ova was added to cultures of APC populations isolated from mice receiving luminal PBS. After 3 days, cultures were evaluated for the number of T-cells by flow cytometry and cell counting.
LP-MNP/T cell co-culture: 1×10^5 flow cytometrically sorted splenic CD3+CD4+Vβ8.3+ CBir1 T cells or 1×10^5 flow cytometrically sorted splenic CD3^+CD4^+Vα2^+Vβ5^+ OTI T cells were cultured with […] CD45+ MHCII+ CD11c+ flow cytometrically sorted SI or colonic LP-MNPs isolated from mice two hours following intraluminal administration of 2 mg Ova or PBS. Some wells were cultured with 10 μg Ova or 10 μg CBir1 Flagellin as a positive control. After three days, cultured cells were counted and analyzed by flow cytometry to determine absolute number of transgenic cells to calculate fold increase of T cells.

C57BL/6 mice = test: Oral tolerance and delayed type hypersensitivity (DTH) response to Ova; format: in vivo
Experimental: Antibiotic treatment: Mice were given a combination of antibiotics (Abx) ampicillin (1 g/L), metronidazole (1 g/L), neomycin (1 g/L), and vancomycin (500 mg/L) in drinking water for the time periods outlined in the figure legends.
EGFRi treatment: Mice were injected with 500 μg/kg tyrphostin AG1478 (an inhibitor of EGFR phosphorylation) in the neonatal, post-neonatal, or weaned phase on DOLs noted in the text or figure legends.
Oral tolerance and Delayed Type Hypersensitivity Responses: Mice, and/or nursing dams, when treated prior to weaning, were given Ova 20 g/L in drinking water, or drinking water alone for the intervals defined in the figure legend. Four weeks and six weeks following dietary Ova exposure mice were immunized subcutaneously with 100 μg Ova in incomplete Freund's Adjuvant (Sigma Aldrich). Two weeks after the last immunization mice were challenged with 20 μg Ova in the footpad, body temperature monitored for one hour, and the increase in footpad thickness evaluated using measurements taken with micrometer calipers taken before and 24 hours after challenge. To directly evaluate colonic antigen delivery and blockade of GAPs in the development of tolerance, enemas containing Ova 10 μg/gm body weight with or without 10 μg EGF were administered intrarectally every other day five times from DOL 14 to 22 (post-neonatal phase) or DOL 56 to 64 (adult). Mice were rested three weeks, and then systemically immunized and challenged in the footpad as above.

[3] = dietary Ova DOL 0-30, EGFRi DOL 6 and 8 or DOL 24 and 26

Compound | GAP formation in SI and colon ([1]; DOL 8 mice (neonatal phase)) | SI GAP formation ([1]; DOL 18 mice) | colonic GAP formation ([1]; DOL 28, post weaning) | GAP formation in the SI and colon ([1]; all phases of early life (DOL8, 18, 28)) | capacity of colonic LP-MNPs to stimulate CBir1 T cells ex vivo ([2]; post-weaning mice (DOL28), EGFR inhibition DOL24 and 26) | lethargy/hypothermia upon rechallenge with sterile Ova in the footpad (C57BL/6 mice; [3]) | oral tolerance (footpad swelling upon Ova rechallenge) (C57BL/6 mice; [3]) | lethargy/hypothermia upon rechallenge with sterile Ova in the footpad (C57BL/6 mice; dietary Ova DOL 0-30, EGFRi DOL 6 and 8 or DOL 24 and 26, listed as inhibitor of EGFR activation) | colonic GAP formation / dextran uptake by colonic epithelial cells ([1]; DOL 14 mice (post-neonatal phase), wildtype) | colonic GAP formation ([1]; DOL 18 mice (post-neonatal phase), agent given luminally) | luminal EGF concentration below which colonic and SI GCs formed GAPs (a concentration that inhibits GAPs on short term exposure) ([1]; DOL ~10 (colon) and DOL ~18 (SI)) | luminal antigen uptake by colonic APCs (expansion of Ova-specific T-cells) [2] | luminal antigen uptake by colonic APCs (expansion of Ova-specific T-cells) ([2]; listed as recombinant EGF) | tolerance to luminal Ova (DTH, footpad thickness) (C57BL/6 mice; Ova enemas with EGF every other day DOL 14-22 (post-neonatal phase colon))
COc1cc2ncnc(Nc3cccc(Cl)c3)c2cc1OC [EGFRi, tyrphostin AG1478] | induced colonic and SI GAPs | induced | induced | allowed GAP formation in the SI and colon during all phases of early life | allowed colonic LP-MNPs from post-weaning mice to capture microbial antigen to stimulate CBir1 T cells ex-vivo | lethargic and hypothermic | significantly abrogated | developed hypothermia |  |  |  |  |  | 
EGF: recombinant murine EGF (Shenandoah); EGFR ligand, given luminally or intracolonically |  |  |  |  |  |  |  |  | inhibited | inhibited GAPs | < 1000 µg/mL | impaired at expanding Ova-specific T-cells | inhibited GAPs and luminal antigen loading of LP-MNPs | abrogated tolerance to luminal Ova; also recorded: attenuates tolerance to a luminal antigen
